Legend:
H460 WT cells = assay: DNA double-strand breaks in [14C]d-thymidine-labeled cells, H460 WT; assay type: cell-based, human; settings: up to 10 times the IC50 concentration, 6 hours
Experimental: (§1) DNA isolated after treatment of the cells for various times with substance (I) is for this purpose analyzed by gel electrophoresis.
(§2) Determination of the DNA double-strand breaks is performed on ^14C-labeled DNA. For this purpose, [^14C]d-thymidine-labeled cells are treated with various concentrations of substance (I). The DNA is isolated by an adapted method of Chia Chiao et al.
(§3) The DNA fractionated by gel electrophoresis is subsequently stained with ethidium bromide.
(§4) On a transilluminator (302 nm), the intact DNA which has not migrated in the electric field is separated from the fragmented DNA, which has thus migrated into the gel, by extraction. The isolated gel and DNA fragments are liquefied at +80° C. in the presence of hydrochloric acid. After addition of a scintillator it is possible to determine the radioactivity using a liquid scintillation meter (TPI-CARB 2100RT). The measured radioactivity is indicated in […] (cpm).
The results represent averages and their standard deviation from n=3 independent experiments.

HT29 WT = assay: DNA double-strand breaks, HT29 WT; assay type: cell-based, human
Experimental: as §1, §2, §3, §4

human telomerase = molecular target: T1, human telomerase (Homo sapiens, UniProt O14746); assay: Telomeric Repeat Amplification Assay (TRAP) ELISA; assay type: biochemical; settings: at 50 μg/ml; telomerase from HCT8 WT colon carcinoma cells
T1 construct: human telomerase obtained from cells of a colon carcinoma (HCT8 WT); endogenous in cells; host or cells: HCT8 WT colon carcinoma cells
T1 sequence (O14746 whole entry): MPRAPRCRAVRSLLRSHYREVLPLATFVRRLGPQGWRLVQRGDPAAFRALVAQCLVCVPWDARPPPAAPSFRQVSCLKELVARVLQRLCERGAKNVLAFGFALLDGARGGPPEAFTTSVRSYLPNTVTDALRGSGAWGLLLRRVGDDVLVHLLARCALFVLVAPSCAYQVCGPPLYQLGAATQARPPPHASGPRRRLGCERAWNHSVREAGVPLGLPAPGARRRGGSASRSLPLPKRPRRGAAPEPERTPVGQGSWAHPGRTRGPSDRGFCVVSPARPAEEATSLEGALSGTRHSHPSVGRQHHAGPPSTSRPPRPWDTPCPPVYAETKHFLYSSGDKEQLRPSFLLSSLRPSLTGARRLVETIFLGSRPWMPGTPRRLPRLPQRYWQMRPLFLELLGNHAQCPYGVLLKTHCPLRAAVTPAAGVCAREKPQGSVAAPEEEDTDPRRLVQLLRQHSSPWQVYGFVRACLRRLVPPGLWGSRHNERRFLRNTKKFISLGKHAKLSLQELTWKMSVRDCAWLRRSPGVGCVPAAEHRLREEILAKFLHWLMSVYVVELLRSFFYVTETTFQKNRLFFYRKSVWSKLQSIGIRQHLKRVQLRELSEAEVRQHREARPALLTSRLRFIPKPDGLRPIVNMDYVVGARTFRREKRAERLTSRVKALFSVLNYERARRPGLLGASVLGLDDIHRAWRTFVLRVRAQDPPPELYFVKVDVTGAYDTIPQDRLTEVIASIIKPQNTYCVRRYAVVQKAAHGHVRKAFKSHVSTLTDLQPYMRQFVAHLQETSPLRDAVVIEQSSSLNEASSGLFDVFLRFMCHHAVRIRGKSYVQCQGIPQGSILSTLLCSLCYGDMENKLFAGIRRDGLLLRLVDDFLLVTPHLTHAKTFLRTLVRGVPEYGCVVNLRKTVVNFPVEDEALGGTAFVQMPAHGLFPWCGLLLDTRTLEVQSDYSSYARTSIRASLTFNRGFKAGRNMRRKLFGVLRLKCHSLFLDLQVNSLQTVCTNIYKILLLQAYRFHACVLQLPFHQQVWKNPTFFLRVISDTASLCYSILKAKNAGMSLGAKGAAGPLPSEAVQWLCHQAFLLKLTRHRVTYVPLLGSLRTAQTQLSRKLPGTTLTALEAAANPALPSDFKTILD
Experimental: The effect of substance (I) on human telomerase is determined by carrying out the so-called Telomeric Repeat Amplification Assay (TRAP) ELISA, based on the method of N. W. Kim et al.
This method is based on use of the polymerase chain reaction (PCR). This entails, in a first step, a number of (GGTTAG) motifs being attached by means of the telomerase activity to the 3′ end of a biotin-labeled oligonucleotide (TS=telomerase substrate). In a second step, the products extended in this way are amplified by the PCR technique using TS and RP (R=reverse) primers. In this way, a “ladder” of products in increments of 6 bases (initial size=50 nucleo-tides) is generated. During the amplification, DNP-labeled dCTP is incorporated into the PCR products. Detection and quantification of the synthesized telomerase products using a sandwich ELISA method are a measure of the telomerase enzymatic activity.
The telomerase products carry the biotin-labeled TS primers and bind to the surface of microtiter plates previously coated with streptavidin. An anti-DIG antibody conjugated to POD binds to the […] nucleotides incorporated during the amplification. After addition of the substrate TMB, the telomerase activity is visualized by […] via the onset of the color reaction by the enzyme POD. In this case, the measured absorption is directly proportional to the telomerase activity. […]

HCT8 WT cells = assay: Coincubation cytotoxicity experiment with a specific ERK1/2 inhibitor; assay type: cell-based, human; settings: 24 hours, different dosage ratios
Experimental: HCT8 WT cells were coincubated.

[1] = tested on: tumor cell lines, resistant subclones and non-tumor cell lines; assay: SRB assay, comparison across the cell line panel; assay type: cell-based
Experimental: Six unambiguously characterized tumor cell lines of human origin (native cell lines and those converted into resistant subclones) and two non-tumor cell lines are used for further investigations (table 2).
The sensitivity of the cell lines to the substance (I) is determined in a so-called sulforhodamine B (SRB) assay. This is a robust and highly reproducible standard method which is also established for example at the NCI (National Cancer Institute, USA) (Skehan et al. 1990).
The concentration of substance (I) which inhibits cell growth by 50% (IC50, determined from semilogarithmic dose versus effect plots) are indicated.

topoisomerase I = molecular target: T2, topoisomerase I (Homo sapiens, UniProt P11387); assay: Topo I unwinding assay; assay type: biochemical; settings: for concentration required for topoisomerase I inhibition as multiple of the IC50 of tumor cell growth: in vitro
T2 construct: 160 ng of cell nucleus extract with the topoisomerase I present therein; endogenous in cells
T2 sequence (P11387 1-765): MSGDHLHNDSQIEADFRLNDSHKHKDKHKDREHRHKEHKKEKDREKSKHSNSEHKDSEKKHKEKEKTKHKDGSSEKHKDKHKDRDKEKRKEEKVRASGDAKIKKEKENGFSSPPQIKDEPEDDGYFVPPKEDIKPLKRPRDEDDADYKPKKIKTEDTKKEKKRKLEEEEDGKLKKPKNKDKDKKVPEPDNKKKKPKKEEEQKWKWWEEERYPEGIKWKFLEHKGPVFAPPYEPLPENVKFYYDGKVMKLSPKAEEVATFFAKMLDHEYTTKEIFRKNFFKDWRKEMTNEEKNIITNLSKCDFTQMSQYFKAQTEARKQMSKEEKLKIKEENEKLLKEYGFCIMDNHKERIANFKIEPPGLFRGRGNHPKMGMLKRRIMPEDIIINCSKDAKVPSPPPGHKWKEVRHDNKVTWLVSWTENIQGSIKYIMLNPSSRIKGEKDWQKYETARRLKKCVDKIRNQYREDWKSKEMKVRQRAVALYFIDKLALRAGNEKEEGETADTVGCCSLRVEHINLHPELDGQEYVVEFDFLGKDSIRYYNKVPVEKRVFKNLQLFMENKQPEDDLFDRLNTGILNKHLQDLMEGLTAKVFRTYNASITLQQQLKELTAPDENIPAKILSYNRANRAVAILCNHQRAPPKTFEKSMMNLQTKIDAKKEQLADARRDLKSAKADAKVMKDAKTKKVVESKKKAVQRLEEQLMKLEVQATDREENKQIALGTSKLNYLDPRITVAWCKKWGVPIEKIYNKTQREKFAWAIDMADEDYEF
Text: The assay is based on an ATP-independent unwinding of twisted pBR322 plasmid DNA dimers by topoisomerase I. The two different topological forms of the plasmid DNA, the twisted form and unwound, relaxed form, are separated in this investigation by means of an agarose gel. The enzyme topoisomerase I is obtained for this purpose from cell nucleus extracts of the tumor cell lines.
Cell nucleus extracts are obtained by the method of Sullivan with the modifications of Danks et al.

ERK1/2 protein = assay: Western blot analysis of ERK1/2 phosphorylation; assay type: cell-based, human; settings: HCT8 WT, detectable even at IC50 dose
Text: Phosphorylation of certain signal transduction pathways plays an essential role in the regulation of cell growth and gene expression. The protein ERK1/2 (MAP kinase) belongs to the MAP kinase signal transduction pathway.
Treatment of human colon carcinoma cells (HCT8 WT) with substance (I) leads to phosphorylation of this protein, which is detected in a Western blot analysis (FIG. 8).

[2] = tested on: HCT8 WT bowel cancer cells; assay: Cell cycle analysis (BrdU/PI flow cytometry); assay type: cell-based, human; settings: IC50 concentration, 24 hours
Experimental: Flow cytometric investigations by an adapted method of Tsugita M. et al. are used for the analysis.
Exponentially growing HCT8 WT bowel cancer cells are treated with substance (I) with the determined IC50 concentration for 24 hours, and then the cells are incubated with BrdU. The cells fixed with methanol are subjected to a treatment with a detergent (Triton X-100/HCl) in order to denature the DNA strands. After incubation with the fluorescence-labeled antibody (anti-BrdU mAb, FITC-labeled), the second fluorescent dye (PI, propidium iodide) is added.
The DNA content (propidium iodide fluorescence) and the amount of BrdU taken up (FITC fluorescence) are determined using a Coulter flow cytometer (Coulter EPICS XL). Exemplary results are depicted in FIGS. 3a and 3b.
FIGS. 3a and 3b show BrdU and PI uptakes into the DNA of HCT8 WT cells, untreated (control, […]) and treated with substance (I) (IC50, 24 hours, […]). The depicted results are representative of n=3 independent experiments.

DNA polymerase = DNA polymerase (Thermus aquaticus, UniProt P19821); assay: Preliminary experiment with the TSR8 template; assay type: biochemical; settings: maximum concentration 50 μg/ml
Sequence of DNA polymerase (P19821 whole entry): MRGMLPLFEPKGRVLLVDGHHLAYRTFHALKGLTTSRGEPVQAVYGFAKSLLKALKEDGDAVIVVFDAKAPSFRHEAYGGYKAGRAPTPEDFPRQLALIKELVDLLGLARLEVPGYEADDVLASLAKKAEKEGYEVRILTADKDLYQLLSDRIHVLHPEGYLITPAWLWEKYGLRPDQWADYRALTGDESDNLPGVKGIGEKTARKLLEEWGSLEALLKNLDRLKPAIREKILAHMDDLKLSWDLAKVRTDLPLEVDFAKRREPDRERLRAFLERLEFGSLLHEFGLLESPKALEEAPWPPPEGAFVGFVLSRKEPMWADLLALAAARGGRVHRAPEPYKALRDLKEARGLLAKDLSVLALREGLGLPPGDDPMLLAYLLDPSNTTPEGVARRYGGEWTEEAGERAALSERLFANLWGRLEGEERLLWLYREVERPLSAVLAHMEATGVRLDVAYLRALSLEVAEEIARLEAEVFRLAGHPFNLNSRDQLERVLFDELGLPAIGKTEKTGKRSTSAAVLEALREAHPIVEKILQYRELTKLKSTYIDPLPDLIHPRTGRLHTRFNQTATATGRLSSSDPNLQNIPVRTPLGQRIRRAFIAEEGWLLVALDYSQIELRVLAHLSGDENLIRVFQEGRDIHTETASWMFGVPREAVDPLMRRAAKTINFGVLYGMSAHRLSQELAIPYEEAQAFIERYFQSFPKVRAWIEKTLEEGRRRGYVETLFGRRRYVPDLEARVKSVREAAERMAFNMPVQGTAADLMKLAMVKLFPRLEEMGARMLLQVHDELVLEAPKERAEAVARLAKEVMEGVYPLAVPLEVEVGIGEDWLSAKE
Experimental: In order to ensure the effect of substance (I) on telomerase, an effect of substance (I) on DNA polymerase must be ruled out. In a preliminary experiment with TSR8 as internal control, the effect of substance (I) at various concentration levels was ruled out.
Amplification of the TSR8 template depends only on DNA polymerase. Every inhibitor of this enzyme can be detected using the substrate.
The experiment is carried out in triplicates.

Compound	induction of DNA double-strand breaks (H460 WT cells)	induction of DNA double-strand breaks (HT29 WT)	inhibition of human telomerase (human telomerase)	cytotoxicity on coincubation with a specific ERK1/2 inhibitor (MAP kinase inhibitor) (HCT8 WT cells)	cytotoxicity for the non-tumor cell lines compared with tumor cell lines ([1]; fibroblasts of the 3T3 and MCR 5 lines)	cross-resistance to the indicated cytostatics ([1]; resistant subclones versus native cell lines)	inhibition at 100 µg/mL (topoisomerase I; at 100 μg/ml, 160 ng cell nucleus extract, pBR322 plasmid DNA)	concentration required for topoisomerase I inhibition as multiple of the IC50 of tumor cell growth (topoisomerase I)	phosphorylation of the ERK1/2 protein (ERK1/2 protein)	effect on cell cycle (BrdU uptake) [2]	inhibition of Tag polymerase (TSR8 template amplification) (DNA polymerase)
CC(C)=CCC1=C(O)[C@]2(C(=O)c3ccccc3)C(=O)[C@@](CC=C(C)C)(CC(CC=C(C)C)C2(C)C)C1=O (stereo partly drawn) [Substance (I), 1-Benzoyl-8,8-dimethyl-2-hydroxy-3,5,7-tris-(3-methyl-2-butenyl)bicyclo[3.3.1]non-2-ene-4,9-dione]	significant amounts of double-strand breaks	substantial amounts of double-strand breaks	Complete inhibition	pronounced synergism	considerably less	no cross-resistance	100%	20 times	dose-dependent phosphorylation	inhibition of the synthesis phase	does not lead to a significant inhibition
CC[C@@]1(O)C(=O)OCc2c1cc1n(c2=O)Cc2cc3c(CN(C)C)c(O)ccc3nc2-1 [topotecan, reference compound]								1000 times			
